Patent US5892071A, “Cationic transport reagents” (The Reagents of The University of California, priority 1995, dated 1999)
Each block holds one molecule with its values, some of them ahead of it.

Key:
NIH 3T3 fibroblasts = assay: Hydrophobic and polar domain transfection analysis of PolyGum derivatives (luciferase specific activity, pGL3I+); type: cell-based, Murine; conditions: for transfection effectiveness ranking among methoxy PolyGum derivatives: 1 microgram plasmid DNA pGL3I+, 48 hours (FIG. 9)
Description: (§1) Transfection activity was measured using the luciferase assay. Luciferase assays were performed with a luciferase assay kit (purchased from Analytical Luminescence Laboratories) using a Monolight 2010 luminometer (Analytical Luminescence Laboratories, San Diego, Calif.) according to the manufacturer's instructions. The media was removed from the transfected cells via aspiration. 0.5 mL of luciferase buffer/well was added, and the cells were placed on ice for 15 min. Luciferase light emissions from 100 μl of the lysate were measured using the luminometer.
Shown in FIG. 9 are hydrophobic and polar domain transfection results for various synthesized PolyGum derivatives. In the tests, 1.0×10^5 NIH 3T3 fibroblasts were plated 24 hours prior to transfection. Cell lysates were obtained 48 hours after transfection and assayed for luciferase specific activity. The data presented in FIG. 9 corresponds to the ability of the subject cationic lipid to mediated delivery of 1 microgram of plasmid DNA (pGL3I+).

NIH 3T3 cells = assay: Luciferase transfection assay (pCMVL plasmid), NIH 3T3 cells; type: cell-based, Murine
Description: NIH 3T3 cells were grown in Dulbecco's modified Eagles medium (DMEM)+10% fetal calf serum. The DNA plasmid pCMVL was prepared by standard methods and used as a 369 ng/μl solution in TE, pH=7.6. The luciferase reporter plasmid pCMVL was prepared at UC Davis, and consists of the P. pyralis luciferase cDNA subcloned into the plasmid pRc/CMV (Invitrogen).
Multilamellar and small sonicated vesicles were prepared by addition of the cationic lipid DOHME together with DOPE, both as solutions in chloroform, to a 5 mL sample vial. The chloroform was removed via rotary evaporation with the water bath set at a constant temperature of 37° C. The resulting thin lipid films were placed under high vacuum overnight to insure that all traces of solvent had been removed. The lipid mixture was resuspended using distilled water ([…] total lipid/1 mL water) and vortex mixed to give a suspension of MLVs. This cloudy suspension was sonicated for fifteen minutes using a bath sonicator until a clear suspension containing SVs was obtained.
Sequential addition of DMEM (with or without 10% fetal calf serum), pCMVL plasmid (for n=4, 4 μg), and liposome formulation into a 2 mL Eppendorf tube gave a total volume of 800 μl. The relative amount of liposome:pCMVL plasmid used was determined by the desired cationic lipid:DNA phosphate charge ratio. The mixing of these substances was followed by thorough vortexing.
Usually, 24 well tissue culture plates containing 5.0×10^4 cells/well rapidly dividing adherent NIH 3T3 cells per well were transfected. The growth media was removed via aspiration and the cells were washed once with 0.5 mL PBS/well. […]
as §1, with “The media was removed from the transfected cells via aspiration. 0.5 mL of luciferase buffer/well was added, and the cells were placed on ice for 15 min.” left out

transfected cells = assay: Alamar Blue toxicity assay; type: cell-based
Description: Usually, 24 well tissue culture plates containing 5.0×10^4 cells/well rapidly dividing adherent NIH 3T3 cells per well were transfected. The growth media was removed via aspiration and the cells were washed once with 0.5 mL PBS/well. A 200 μl aliquot of liposome-DNAcomplex was added to each well and the cells were allowed to incubate for 4 hr. at 37° C. If desired, at this time, 1 mL of DMEM+10% fetal calf serum/well was added and the cells were allowed to incubate for an additional 48 hr, after which assays of toxicity and/or efficacy were performed. Equivalent procedures were utilized for the DU-145 cells.
Alamar blue (Alamar Biosciences, Sacramento, Calif.), was diluted in cell culture media to 10%, added to cells, and incubated for up to two hours. Reduced dye was quantitated using a CytoFluor 2300 fluorescence plate reader with a 530 nm excitation filter and a 590 nm emission filter. Values expressed represent fluorescence less background. The same transfected cells can subsequently be assayed for reporter protein activity after Alamar Blue analysis.

transfection effectiveness ranking among methoxy PolyGum derivatives (NIH 3T3 fibroblasts): most effective in transfection
Compound: CCCCCCCCCCCCCCCC(=O)OC(C[N+](C)(C)CCOC)C(C[N+](C)(C)CCOC)OC(=O)CCCCCCCCCCCCCCC (centres unmarked) [DP-PG-Me]

transfection effectiveness ranking among methoxy PolyGum derivatives (NIH 3T3 fibroblasts): least effective in transfection
Compound: CCCCCCCCCCCC(=O)OC(C[N+](C)(C)CCOC)C(C[N+](C)(C)CCOC)OC(=O)CCCCCCCCCCC (racemic) [DL-PG-Me]

Compound: CCCCCCCCCCCCCC(=O)OC(C[N+](C)(C)CCOC)C(C[N+](C)(C)CCOC)OC(=O)CCCCCCCCCCCCC (centres unmarked) [DM-PG-Me]
transfection efficiency, methoxy versus non-methoxy form (NIH 3T3 fibroblasts; DM-PG-Me versus DM-PG-OH (FIG. 9)): more efficient in transfection than the non-methoxy form

Compound: CCCCCCCC/C=C\CCCCCCCC(=O)OC(C[N+](C)(C)CCO)C(C[N+](C)(C)CCO)OC(=O)CCCCCCC/C=C\CCCCCCCC.[I-].[I-] (centres unmarked) [PolyGum, N,N,N',N'-tetramethyl-N,N'-bis(2-hydroxyethyl)-2,3-di(oleoyloxy)-1,4-butanediaminium iodide]
effect of serum on PolyGum (MLV) mediated transfection (NIH 3T3 cells; MLV, serum-free versus 10% calf serum (FIG. 3)): greatly increased transfection is found with serum-free conditions than in the presence of 10% calf serum
efficiency of transfection as mole ratio of DOPE to PolyGum is increased (NIH 3T3 cells; SV, serum-free (FIG. 5)): the efficiency of transfection is lowered in a generally linear fashion
effect of serum on PolyGum mediated transfection under other transfection conditions (NIH 3T3 cells; other transfection conditions, with serum): little change is noted with serum transfection
toxicity versus LIPOFECTIN and several other amine containing vesicles (transfected cells; PolyGum MLV formulation): less toxicity
toxicity versus LIPOFECTIN and several other amine containing vesicles (transfected cells; PolyGum SV formulation): less toxicity
